Tests used:
[1] = system: Human immunodeficiency virus 1; assay: Antiviral activity against HIV1 with reverse transcriptase E138K mutation in CEM cells assessed as inhibition of virus-induced giant cell formation; type: functional, organism-based; conditions: Human immunodeficiency virus 1, CCRF-CEM
[2] = system: Human immunodeficiency virus 1; assay: Antiviral activity against HIV1 with reverse transcriptase K103N mutation in CEM cells assessed as inhibition of virus-induced giant cell formation; type: functional, organism-based; conditions: Human immunodeficiency virus 1, CCRF-CEM
[3] = system: Human immunodeficiency virus 1; assay: Antiviral activity against HIV1 with reverse transcriptase Y181C mutation in CEM cells assessed as inhibition of virus-induced giant cell formation; type: functional, organism-based; conditions: Human immunodeficiency virus 1, CCRF-CEM
[4] = Cytotoxicity against MT4 cells assessed as reduction of cell viability; type: cell-based; conditions: human
[5] = system: Human immunodeficiency virus 1; assay: Antiviral activity against HIV1 with reverse transcriptase Y188H mutation in CEM cells assessed as inhibition of virus-induced giant cell formation; type: functional, organism-based; conditions: Human immunodeficiency virus 1, CCRF-CEM
[6] = system: Human immunodeficiency virus 1; assay: Antiviral activity against HIV1 assessed as reduction of virus-induced cytopathic effect in MT4 cells; type: functional, organism-based; conditions: Human immunodeficiency virus 1, MT4
[7] = system: Human immunodeficiency virus 1; assay: Antiviral activity against HIV1 3B in CEM cells assessed as inhibition of virus-induced giant cell formation; type: functional, organism-based; conditions: Human immunodeficiency virus 1, 3B, CCRF-CEM
[8] = system: Human immunodeficiency virus 1; assay: Antiviral activity against HIV1 with reverse transcriptase L100I mutation in CEM cells assessed as inhibition of virus-induced giant cell formation; type: functional, organism-based; conditions: Human immunodeficiency virus 1, CCRF-CEM
[9] = target: Human immunodeficiency virus type 1 reverse transcriptase (Human immunodeficiency virus 1, UniProt Q72547); assay: Inhibition of RNA dependent DNA polymerase activity of HIV1 recombinant reverse transcriptase
[10] = Selectivity index, ratio of CC50 for human MT4 cells to EC50 for HIV1; type: functional

| Structure (SMILES) | EC50 [1] [nM] | EC50 [2] [nM] | EC50 [3] [nM] | CC50 [4] [nM] | EC50 [5] [nM] | EC50 [6] [nM] | EC50 [7] [nM] | EC50 [8] [nM] | IC50 [9] [nM] | Ratio CC50/EC50 [10] |
| --- | --- | --- | --- | --- | --- | --- | --- | --- | --- | --- |
| O=C1Nc2ccc(Cl)cc2[C@@](C#CC2CC2)(C(F)(F)F)O1 [EFAVIRENZ] | 9.6 | 218 | 6.1 | > 6000 | 49 |  |  |  |  |  |
| O=c1[nH]c2ccc(Cl)cc2n1Cc1c(F)cccc1F | 2500 | > 50000 | > 50000 | > 424000 | > 50000 | 240 | 374 | 3100 | 700 | >1766 |
| Cc1cc(C)cc(Cn2c(=O)[nH]c3ccc(Cl)cc32)c1 | 665 | ≥ 3000 | > 3000 | 8900 | > 3000 | 32 | 81 | 49 | 150 | 281 |
| Cc1cc(C)cc(S(=O)(=O)n2c(=O)[nH]c3ccc(Cl)cc32)c1 | 15 | 29 | 160 | 39000 | 1500 | 2 | 3 | 6 | 5 | 17846 |
| Cc1ccnc2c1NC(=O)c1cccnc1N2C1CC1 [NEVIRAPINE] | 207 | 1300 | 2500 | > 15000 | > 75000 | 73 | 30 | 199 |  |  |
